Paper PMC10424716, “Discovery selective acetylcholinesterase inhibitors to control Tetranychus urticae (Acari: Tetranychidae)” (Journal of Insect Science, 2023)
Read-outs that look alike come from different tables or passages of the source.

Target: T1, T. urticae AChE (TuAChE) (Tetranychus cinnabarinus, UniProt M9T420)
T1 construct: gene ace1; methods also mention mite extracts
T1 sequence (M9T420 1-687): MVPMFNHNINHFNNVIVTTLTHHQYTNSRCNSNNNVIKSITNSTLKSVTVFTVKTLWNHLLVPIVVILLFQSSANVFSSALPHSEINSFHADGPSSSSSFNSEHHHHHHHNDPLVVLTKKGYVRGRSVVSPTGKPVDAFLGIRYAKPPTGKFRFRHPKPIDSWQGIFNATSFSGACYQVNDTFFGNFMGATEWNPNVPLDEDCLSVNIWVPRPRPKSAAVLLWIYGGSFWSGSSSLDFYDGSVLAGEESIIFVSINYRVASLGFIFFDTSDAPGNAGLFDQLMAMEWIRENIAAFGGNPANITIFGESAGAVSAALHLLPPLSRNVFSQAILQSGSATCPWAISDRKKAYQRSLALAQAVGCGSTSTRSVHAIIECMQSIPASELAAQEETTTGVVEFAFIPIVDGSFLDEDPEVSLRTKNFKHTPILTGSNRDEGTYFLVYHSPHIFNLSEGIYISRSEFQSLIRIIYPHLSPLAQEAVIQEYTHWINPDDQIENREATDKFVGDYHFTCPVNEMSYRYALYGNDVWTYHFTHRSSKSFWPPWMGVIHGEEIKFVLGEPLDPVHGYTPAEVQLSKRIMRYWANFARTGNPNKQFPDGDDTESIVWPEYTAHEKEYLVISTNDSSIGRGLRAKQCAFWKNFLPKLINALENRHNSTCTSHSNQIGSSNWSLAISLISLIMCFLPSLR
Test: modified Ellman assay, […] nm
Assay type: biochemical

Structure (SMILES)	IC50 (read-out: IC50(mM) / TuAChE) [mM]	IC50 [mM]
O=C(c1ccc2occc2c1)N1CCC(OCc2ccccc2)CC1 [compound 8, 1-(1-benzofuran-5-ylcarbonyl)-4-(benzyloxy) piperidine]	1.51	–
CNC(=O)Oc1ccc2c(c1)[C@]1(C)CCN(C)[C@@H]1N2C [eserine]	–	3.81
